Test results: ChEMBL document CHEMBL1137951, “Synthesis and in vitro evaluation of 7-dialkylaminomethylbenzo[g]quinoxaline-5,10-diones” (Bioorg Med Chem Lett, 2004)

Key:
Assay type in all cases: functional, cell-based
HCT-15 = experiment: In vitro cytotoxic activity against human colon cancer cell line HCT15 after 72 hr of drug exposure determined by the SRB assay; details: HCT-15, 72 h
SK-OV-3 = experiment: In vitro cytotoxic activity against human ovarian carcinoma cell line SK-OV-3 after 72 hr of drug exposure determined by the SRB assay; details: SK-OV-3, 72 h
T47D = experiment: In vitro cytotoxic activity against human breast cancer cell line T-47D after 72 hr of drug exposure determined by the SRB assay
MDA-MB-468 = experiment: In vitro cytotoxic activity against human breast cancer cell line MD-MB-468 after 72 hr of drug exposure determined by the SRB assay; details: MDA-MB-468, 72 h

Cc1ccc2c(c1)C(=O)c1nccnc1C2=O
IC50 (HCT-15): 120 nM | IC50 (SK-OV-3): 2200 nM | IC50 (T47D): 1200 nM | IC50 (MDA-MB-468): 1500 nM

O=C1c2ccc(CBr)cc2C(=O)c2nccnc21
IC50 (HCT-15): 400 nM | IC50 (SK-OV-3): 1600 nM | IC50 (T47D): 500 nM | IC50 (MDA-MB-468): 300 nM

CN(C)Cc1ccc2c(c1)C(=O)c1nccnc1C2=O
IC50 (HCT-15): 100 nM | IC50 (SK-OV-3): 220 nM | IC50 (T47D): 100 nM | IC50 (MDA-MB-468): 100 nM

O=C1c2ccc(CN3CCCC3)cc2C(=O)c2nccnc21
IC50 (HCT-15): 100 nM | IC50 (SK-OV-3): 250 nM | IC50 (T47D): 100 nM | IC50 (MDA-MB-468): 100 nM

O=C1c2ccc(CN3CCOCC3)cc2C(=O)c2nccnc21
IC50 (HCT-15): 1300 nM | IC50 (SK-OV-3): 7000 nM | IC50 (T47D): 1300 nM | IC50 (MDA-MB-468): 3200 nM

O=C1c2ccc(CN3CCCCC3)cc2C(=O)c2nccnc21
IC50 (HCT-15): 50 nM | IC50 (SK-OV-3): 400 nM | IC50 (T47D): 80 nM | IC50 (MDA-MB-468): 200 nM

CN1CCN(Cc2ccc3c(c2)C(=O)c2nccnc2C3=O)CC1
IC50 (HCT-15): 1200 nM | IC50 (SK-OV-3): 10000 nM | IC50 (T47D): 3000 nM | IC50 (MDA-MB-468): 3000 nM

O=C1c2ccc(CN(CCO)CCO)cc2C(=O)c2nccnc21
IC50 (HCT-15): 180 nM | IC50 (SK-OV-3): 1200 nM | IC50 (T47D): 900 nM | IC50 (MDA-MB-468): 900 nM

COc1cccc2c1C(=O)c1c(O)c3c(c(O)c1C2=O)C[C@@](O)(C(=O)CO)C[C@@H]3O[C@H]1C[C@H](N)[C@H](O)[C@H](C)O1 [DOXORUBICIN]
IC50 (HCT-15): 25 nM | IC50 (T47D): 7 nM | IC50 (MDA-MB-468): 7 nM

CO[C@@]12[C@H](COC(N)=O)C3=C(C(=O)C(C)=C(N)C3=O)N1C[C@@H]1N[C@@H]12 [MITOMYCIN]
IC50 (HCT-15): 70 nM | IC50 (SK-OV-3): 180 nM | IC50 (T47D): 400 nM | IC50 (MDA-MB-468): 270 nM
